Values after ≈ are worked out from the molar mass of the structure shown. Active and inactive are the calls of the source. No cut-off for these calls is given here.
Columns and labels:
Aspergillus fumigatus = experiment: Antifungal activity against Aspergillus fumigatus AS3.3913 assessed as inhibition of fungal growth incubated for 72 hrs by broth microdilution method; format: functional
Candida albicans = experiment: Antifungal activity against Candida albicans ATCC10231 assessed as inhibition of fungal growth incubated for 72 hrs by broth microdilution method; format: functional
Cryptococcus neoformans [1] = experiment: Antifungal activity against Cryptococcus neoformans ATCC32045 assessed as inhibition of fungal growth incubated for 72 hrs by broth microdilution method; format: functional
Candida tropicalis = experiment: Antifungal activity against Candida tropicalis ATCC1369 assessed as inhibition of fungal growth incubated for 72 hrs by broth microdilution method; format: functional
Cell membrane [2] = experiment: Disruption of cell membrane in Cryptococcus neoformans ATCC32045 assessed as cell wrinkling at 2 ug/ml incubated for 12 hrs by scanning electron microscopy analysis; format: subcellular; details: dose 2.0 µg/ml
Cryptococcus neoformans [3] = experiment: Fungicidal activity against Cryptococcus neoformans ATCC32045 incubated for 72 hrs; format: functional
Cryptococcus neoformans [4] = experiment: Antifungal activity against Cryptococcus neoformans ATCC32045 assessed as inhibition of melanin production at 8 ug/ml; format: functional, organism-based; details: dose 8.0 µg/ml
Cryptococcus neoformans [5] = experiment: Fungicidal activity against Cryptococcus neoformans ATCC32045 assessed as reduction in viable colony count incubated for 12 hrs by time kill assay; format: functional, organism-based
Cryptococcus neoformans [6] = experiment: Selectivity ratio of MFC for Cryptococcus neoformans ATCC32045 to MIC for Cryptococcus neoformans ATCC32045; format: functional
Cryptococcus neoformans [7] = experiment: Fungicidal activity against Cryptococcus neoformans ATCC32045 assessed as reduction in viable colony counts at 0.5 to 1 ug/ml observed within 4 hrs by time kill assay (reference value: 6 log10CFU/ml); format: functional; details: dose 0.5-1 µg/ml
[8] = Cytotoxicity against HUVEC cells assessed as inhibition of cell viability incubated for 24 hrs by CCK-8 assay; format: toxicity, cell-based; details: human
Cryptococcus neoformans [9] = experiment: Antibiofilm activity against Cryptococcus neoformans ATCC32045 assessed as reduction in 24 hrs preformed biofilm at 1 ug/ml incubated for 24 hrs by XTT reduction assay relative to control; format: functional; set-up: scale not given: the % may be the effect or the level left; details: dose 1 µg/ml
Cell membrane [10] = experiment: Disruption of membrane integrity in Cryptococcus neoformans ATCC32045 assessed as red fluorescence at 2 ug/ml incubated for 4 hrs by PI staining based fluorescence microscopic analysis; format: subcellular; details: dose 2.0 µg/ml
Cell membrane [11] = experiment: Disruption of cell membrane in Cryptococcus neoformans ATCC32045 assessed as cell disintegration at 2 ug/ml incubated for 12 hrs by scanning electron microscopy analysis; format: subcellular; details: dose 2.0 µg/ml
Cryptococcus neoformans [12] = experiment: Antifungal activity against Cryptococcus neoformans ATCC32045 assessed as inhibition of urease production at 2 ug/ml; format: functional, organism-based; details: dose 2.0 µg/ml
Cell membrane [13] = experiment: Disruption of membrane integrity in Cryptococcus neoformans ATCC32045 assessed as blue fluorescence at 2 ug/ml incubated for 4 hrs by DAPI staining based fluorescence microscopic analysis; format: subcellular; details: dose 2.0 µg/ml
Cryptococcus neoformans [14] = experiment: Antibiofilm activity against Cryptococcus neoformans ATCC32045 assessed as inhibition of biofilm formation incubated for 24 hrs by XTT reduction assay; format: functional, organism-based; details: dose 0.125-8 µg/ml
Cryptococcus neoformans [15] = experiment: Antibiofilm activity against Cryptococcus neoformans ATCC32045 assessed as inhibition of biofilm formation at >=4 ug/ml incubated for 24 hrs by XTT reduction assay relative to control; format: functional; details: dose >= 4 µg/ml
Cryptococcus neoformans [16] = experiment: Disruption of 24 hrs preformed biofilm in Cryptococcus neoformans ATCC32045 incubated for 24 hrs by XTT reduction assay; format: functional, organism-based; details: dose 0.125-8 µg/ml
Cell membrane [17] = experiment: Disruption of cell membrane in Cryptococcus neoformans ATCC32045 assessed as cell shrinkage at 2 ug/ml incubated for 12 hrs by scanning electron microscopy analysis; format: subcellular; details: dose 2.0 µg/ml
[18] = Selectivity index, ratio of CC50 for HUVEC cells to MIC for antifungal activity against Cryptococcus neoformans ATCC32045; format: toxicity; details: human, read-out: Selectivity Index

Compound | MIC (Aspergillus fumigatus) [µg/mL] | MIC (Candida albicans) [µg/mL] | MIC (Cryptococcus neoformans [1]) [µg/mL] | MIC (Candida tropicalis) [µg/mL] | other results
COc1cc(-c2ccc(CCBr)cc2)cc(O)c1O | 128 (≈ 396 µM) | 32 (≈ 99 µM) | 8 (≈ 24.8 µM) | 32 (≈ 99 µM) | –
COc1cc(-c2ccccc2)cc2c1OCO2 | 512 (≈ 2240 µM) | > 512 | > 512 | > 512 | –
CCCc1ccc(-c2ccc(-c3cc(O)c(O)c(OC)c3)cc2)cc1 | > 512 | 512 (≈ 1530 µM) | 4 (≈ 12 µM) | 64 (≈ 191 µM) | –
CCCCCc1ccc(-c2cc(O)cc(O)c2)cc1 | 8 (≈ 31.2 µM) | 2 (≈ 7.8 µM) | 0.25 (≈ 0.975 µM) | 1 (≈ 3.9 µM) | Activity (Cell membrane [2]): Active; MFC (Cryptococcus neoformans [3]): 1 µg/mL (≈ 3.9 µM); Activity (Cryptococcus neoformans [4]): Active; Activity (Cryptococcus neoformans [5]): Dose-Dependent Effect; Selectivity ratio (Cryptococcus neoformans [6]): 4; Activity (Cryptococcus neoformans [7]): 4 log10CFU/ml; CC50 at 24 h [8]: 19.4 µg/mL (≈ 75.7 µM); Activity (Cryptococcus neoformans [9]): ~71.6%; Activity (Cell membrane [10]): Active; Activity (Cell membrane [11]): Active; Activity (Cryptococcus neoformans [12]): Active; Activity (Cell membrane [13]): Active; Activity (Cryptococcus neoformans [14]): Dose-Dependent Effect; inhibition (INH) (Cryptococcus neoformans [15]): ~100%; Activity (Cryptococcus neoformans [16]): Dose-Dependent Effect; Activity (Cell membrane [17]): Active
CCc1ccc(-c2cc(O)c(O)c(OC)c2)cc1 | 64 (≈ 262 µM) | 32 (≈ 131 µM) | 8 (≈ 32.7 µM) | 32 (≈ 131 µM) | –
C[C@@H]1[C@H](O)[C@@H](C)/C=C/C=C/C=C/C=C/C=C/C=C/C=C/[C@H](O[C@@H]2O[C@H](C)[C@@H](O)[C@H](N)[C@@H]2O)C[C@@H]2O[C@](O)(C[C@@H](O)C[C@@H](O)[C@H](O)CC[C@@H](O)C[C@@H](O)CC(=O)O[C@H]1C)C[C@H](O)[C@H]2C(=O)O [AMPHOTERICIN B] | 2 (≈ 2.16 µM) | 0.5 (≈ 0.541 µM) | 0.25 (≈ 0.271 µM) | 0.5 (≈ 0.541 µM) | MFC (Cryptococcus neoformans [3]): 2 µg/mL (≈ 2.16 µM); Activity (Cryptococcus neoformans [5]): Dose-Dependent Effect; Activity (Cryptococcus neoformans [7]): 4 log10CFU/ml; CC50 at 24 h [8]: 4.12 µg/mL (≈ 4.46 µM); Activity (Cell membrane [10]): Active; Activity (Cell membrane [13]): Active; Selectivity ratio [18]: 16
COc1cc(-c2ccccc2)cc(OC(C)=O)c1OC(C)=O | > 512 | > 512 | > 512 | > 512 | –
CCCc1ccc(-c2cc(O)c(O)c(OC)c2)cc1 | 64 (≈ 248 µM) | 16 (≈ 61.9 µM) | 4 (≈ 15.5 µM) | 8 (≈ 31 µM) | –
COc1cc(-c2ccccc2)cc(OCc2ccccc2)c1OCc1ccccc1 | > 512 | > 512 | > 512 | > 512 | –
CCCCCc1ccc(-c2cc(O)c(O)c(OC)c2)cc1 | 512 (≈ 1790 µM) | 8 (≈ 27.9 µM) | 2 (≈ 6.98 µM) | 2 (≈ 6.98 µM) | –
CCc1ccccc1-c1cc(O)c(O)c(OC)c1 | 128 (≈ 524 µM) | 256 (≈ 1050 µM) | 64 (≈ 262 µM) | 128 (≈ 524 µM) | –
CCc1cc(CC)cc(-c2cc(O)c(O)c(OC)c2)c1 | 32 (≈ 117 µM) | 64 (≈ 235 µM) | 8 (≈ 29.4 µM) | 16 (≈ 58.7 µM) | –
CCCCCc1ccc(-c2cc(O)ccc2O)cc1 | 64 (≈ 250 µM) | 16 (≈ 62.4 µM) | 2 (≈ 7.8 µM) | 16 (≈ 62.4 µM) | –
CCCCCc1ccc(-c2ccc(O)c(O)c2O)cc1 | 32 (≈ 117 µM) | 8 (≈ 29.4 µM) | 4 (≈ 14.7 µM) | 4 (≈ 14.7 µM) | –
COc1cc(-c2ccccc2)cc(OC)c1O [AUCUPARIN] | > 512 | > 512 | 64 (≈ 278 µM) | > 512 | –
CCCCCc1ccc(-c2ccc(O)cc2O)cc1 | 8 (≈ 31.2 µM) | 2 (≈ 7.8 µM) | 0.5 (≈ 1.95 µM) | 2 (≈ 7.8 µM) | MFC (Cryptococcus neoformans [3]): 0.5 µg/mL (≈ 1.95 µM); Selectivity ratio (Cryptococcus neoformans [6]): 1
CCCCC(=O)c1ccc(-c2cc(O)c(O)c(OC)c2)cc1 | 512 (≈ 1700 µM) | 512 (≈ 1700 µM) | 512 (≈ 1700 µM) | 512 (≈ 1700 µM) | –
CCCCCCCCc1ccc(-c2cc(O)c(O)c(OC)c2)cc1 | > 512 | > 512 | 4 (≈ 12.2 µM) | > 512 | –
COc1cc(-c2ccc(CCC#N)cc2)cc(O)c1O | 512 (≈ 1900 µM) | 512 (≈ 1900 µM) | 512 (≈ 1900 µM) | 512 (≈ 1900 µM) | –
CCCCc1ccc(-c2cc(O)c(O)c(OC)c2)cc1 | 32 (≈ 117 µM) | 16 (≈ 58.7 µM) | 2 (≈ 7.34 µM) | 4 (≈ 14.7 µM) | –

Compound | MIC (Aspergillus fumigatus) [µg/mL] | MIC (Candida albicans) [µg/mL] | MIC (Cryptococcus neoformans [1]) [µg/mL] | MIC (Candida tropicalis) [µg/mL] | other results
COc1cc(-c2cc(C(C)(C)C)cc(C(C)(C)C)c2)cc(O)c1O | 128 (≈ 390 µM) | > 512 | > 512 | > 512 | –
CCCCCCc1ccc(-c2cc(O)c(O)c(OC)c2)cc1 | > 512 | 512 (≈ 1700 µM) | 1 (≈ 3.33 µM) | 4 (≈ 13.3 µM) | –
COc1cc(-c2ccc(C3CCCCC3)cc2)cc(O)c1O | > 512 | 512 (≈ 1720 µM) | 2 (≈ 6.7 µM) | 512 (≈ 1720 µM) | –
C=CCOc1cc(-c2ccccc2)cc(OC)c1OCC=C | > 512 | > 512 | > 512 | > 512 | –
CCCCCc1ccc(-c2ccc(O)c(O)c2)cc1 | 16 (≈ 62.4 µM) | 4 (≈ 15.6 µM) | 0.25 (≈ 0.975 µM) | 2 (≈ 7.8 µM) | MFC (Cryptococcus neoformans [3]): 0.5 µg/mL (≈ 1.95 µM); Selectivity ratio (Cryptococcus neoformans [6]): 2
COc1cc(-c2ccccc2)cc(OC(=O)C2CCCCC2)c1OC(=O)C1CCCCC1 | > 512 | > 512 | > 512 | > 512 | –
CCCCc1ccc(-c2ccc(O)c(O)c2)cc1 | 16 (≈ 66 µM) | 4 (≈ 16.5 µM) | 0.5 (≈ 2.06 µM) | 4 (≈ 16.5 µM) | –
COc1cc(-c2ccc(C(C)C)cc2)cc(O)c1O | 64 (≈ 248 µM) | 16 (≈ 61.9 µM) | 8 (≈ 31 µM) | 16 (≈ 61.9 µM) | –
COc1cc(-c2ccc(C(C)(C)C)cc2)cc(O)c1O | 64 (≈ 235 µM) | 16 (≈ 58.7 µM) | 4 (≈ 14.7 µM) | 16 (≈ 58.7 µM) | –
CCCCCc1ccc(-c2cccc(O)c2O)cc1 | 16 (≈ 62.4 µM) | 4 (≈ 15.6 µM) | 1 (≈ 3.9 µM) | 2 (≈ 7.8 µM) | –
COc1cc(-c2ccccc2F)cc(O)c1O | 64 (≈ 273 µM) | 128 (≈ 546 µM) | 128 (≈ 546 µM) | 128 (≈ 546 µM) | –
COc1cc(-c2ccc(O)cc2)cc(O)c1O | > 512 | > 512 | > 512 | > 512 | –
CCCCCc1ccc(-c2c(O)cccc2O)cc1 | 32 (≈ 125 µM) | 32 (≈ 125 µM) | 8 (≈ 31.2 µM) | 32 (≈ 125 µM) | –
CCc1cccc(-c2cc(O)c(O)c(OC)c2)c1 | 128 (≈ 524 µM) | 128 (≈ 524 µM) | 32 (≈ 131 µM) | 128 (≈ 524 µM) | –
CCCCCc1ccc(-c2cc(O)c(O)c(O)c2)cc1 | 32 (≈ 117 µM) | 8 (≈ 29.4 µM) | 2 (≈ 7.34 µM) | 4 (≈ 14.7 µM) | –
COc1cc(-c2ccccc2)cc(OC(=O)c2ccc(C)cc2)c1OC(=O)c1ccc(C)cc1 | > 512 | > 512 | > 512 | > 512 | –
CCCCCCc1cccc(-c2cc(O)c(O)c(OC)c2)c1 | 512 (≈ 1700 µM) | > 512 | 2 (≈ 6.66 µM) | 8 (≈ 26.6 µM) | –
COc1cc(-c2ccccc2)cc(O)c1O | 128 (≈ 592 µM) | 128 (≈ 592 µM) | 64 (≈ 296 µM) | 128 (≈ 592 µM) | –
CCCCCCCc1ccc(-c2cc(O)c(O)c(OC)c2)cc1 | > 512 | 512 (≈ 1630 µM) | 2 (≈ 6.36 µM) | 512 (≈ 1630 µM) | –
Oc1cc(-c2ccccc2)cc(O)c1O | > 512 | > 512 | 256 (≈ 1270 µM) | > 512 | –
